Patent US8501936B2 (priority 2009, dated 2013)

What was measured:
human FAK = human FAK (Homo sapiens (Human), UniProt Q05397); details: read-out: FAK IC50
human JAK2 = human JAK2 (Homo sapiens (Human), UniProt O60674); details: read-out: JAK2 IC50
Chain of human JAK2 (O60674 815-1132): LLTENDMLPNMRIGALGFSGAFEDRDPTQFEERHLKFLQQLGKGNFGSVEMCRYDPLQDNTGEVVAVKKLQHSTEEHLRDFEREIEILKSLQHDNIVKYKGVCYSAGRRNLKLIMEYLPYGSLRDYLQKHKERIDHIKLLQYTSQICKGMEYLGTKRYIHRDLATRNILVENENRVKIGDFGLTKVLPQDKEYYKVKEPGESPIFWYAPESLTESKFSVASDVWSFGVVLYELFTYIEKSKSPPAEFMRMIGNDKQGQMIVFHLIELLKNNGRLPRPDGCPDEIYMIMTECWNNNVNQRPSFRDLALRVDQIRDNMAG

Chain of human FAK (Q05397 whole entry): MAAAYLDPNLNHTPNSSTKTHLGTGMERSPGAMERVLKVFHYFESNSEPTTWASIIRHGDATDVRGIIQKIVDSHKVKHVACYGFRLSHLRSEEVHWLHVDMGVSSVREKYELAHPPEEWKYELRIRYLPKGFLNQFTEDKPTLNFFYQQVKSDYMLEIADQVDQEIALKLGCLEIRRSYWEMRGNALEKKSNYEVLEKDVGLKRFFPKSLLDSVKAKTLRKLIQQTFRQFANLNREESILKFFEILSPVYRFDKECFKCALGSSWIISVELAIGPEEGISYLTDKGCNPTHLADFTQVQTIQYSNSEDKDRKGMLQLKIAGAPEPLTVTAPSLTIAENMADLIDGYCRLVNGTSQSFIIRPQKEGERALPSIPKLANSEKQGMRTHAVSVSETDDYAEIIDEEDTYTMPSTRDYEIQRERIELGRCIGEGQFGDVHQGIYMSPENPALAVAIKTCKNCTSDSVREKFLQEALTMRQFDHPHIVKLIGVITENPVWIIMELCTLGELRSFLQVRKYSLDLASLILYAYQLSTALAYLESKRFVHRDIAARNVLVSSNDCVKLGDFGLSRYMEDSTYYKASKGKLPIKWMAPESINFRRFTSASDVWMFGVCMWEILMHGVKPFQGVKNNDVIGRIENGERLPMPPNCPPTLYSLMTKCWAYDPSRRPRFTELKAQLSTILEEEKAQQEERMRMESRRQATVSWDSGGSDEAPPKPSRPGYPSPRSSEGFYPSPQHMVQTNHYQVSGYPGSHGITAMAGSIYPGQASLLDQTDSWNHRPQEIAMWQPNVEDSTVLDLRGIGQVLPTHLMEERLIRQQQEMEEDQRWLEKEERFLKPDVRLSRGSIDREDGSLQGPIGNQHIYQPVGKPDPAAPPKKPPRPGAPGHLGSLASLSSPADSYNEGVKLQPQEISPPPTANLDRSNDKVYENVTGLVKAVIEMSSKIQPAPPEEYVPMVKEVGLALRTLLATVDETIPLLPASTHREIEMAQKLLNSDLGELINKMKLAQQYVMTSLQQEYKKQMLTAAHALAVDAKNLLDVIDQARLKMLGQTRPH

Structure (SMILES): COc1ccccc1-c1cccn2nc(Nc3ccc(N4CCOCC4)cc3)nc12 [Example 2, [8-(2-Methoxy-phenyl)-[1,2,4]triazolo[1,5-a]pyridin-2-yl]-(4-morpholin-4-yl-phenyl)-amine]
- IC50 (human FAK): 6500 nM
- IC50 (human JAK2): 20 nM

Structure (SMILES): CS(=O)(=O)c1ccc(-c2cccn3nc(Nc4ccc(N5CCOCC5)cc4)nc23)cc1 [Example 4, [8-(4-Methanesulfonyl-phenyl)-[1,2,4]triazolo[1,5-a]pyridin-2-yl]-(4-morpholin-4-yl-phenyl)-amine]
- IC50 (human FAK): 461 nM
- IC50 (human JAK2): 0.9 nM

Structure (SMILES): c1cncc(-c2cccn3nc(Nc4ccc(N5CCOCC5)cc4)nc23)c1 [Example 6, (4-Morpholin-4-yl-phenyl)-(8-pyridin-3-yl-[1,2,4]triazolo[1,5-a]pyridin-2-yl)-amine]
- IC50 (human FAK): 3000 nM
- IC50 (human JAK2): 25.9 nM

Structure (SMILES): COc1ccc(-c2cccn3nc(Nc4ccc(N5CCOCC5)cc4)nc23)cn1 [Example 8, [8-(6-Methoxy-pyridin-3-yl)-[1,2,4]triazolo[1,5-a]pyridin-2-yl]-(4-morpholin-4-yl-phenyl)-amine]
- IC50 (human FAK): 1480 nM
- IC50 (human JAK2): 13.4 nM

Structure (SMILES): CS(=O)(=O)c1ccc(-c2cccn3nc(Nc4ccc(OCCN5CCCC5)cc4)nc23)cc1 [Example 10, [8-(4-Methanesulfonyl-phenyl)-[1,2,4]triazolo[1,5-a]pyridin-2-yl]-[4-(2-pyrrolidin-1-yl-ethoxy)-phenyl]-amine]
- IC50 (human FAK): 206 nM
- IC50 (human JAK2): 1 nM

Structure (SMILES): c1cc(-c2ccncc2)c2nc(Nc3ccc(N4CCOCC4)cc3)nn2c1 [Example 11, (4-Morpholin-4-yl-phenyl)-(8-pyridin-4-yl-[1,2,4]triazolo[1,5-a]pyridin-2-yl)-amine]
- IC50 (human FAK): 6500 nM
- IC50 (human JAK2): 5.5 nM

Structure (SMILES): CS(=O)(=O)c1ccc(-c2cccc3nc(Nc4ccc(N5CCOCC5)cc4)nn23)cc1 [Example 12, [5-(4-Methanesulfonyl-phenyl)-[1,2,4]triazolo[1,5-a]pyridin-2-yl]-(4-morpholin-4-yl-phenyl)-amine]
- IC50 (human FAK): 434 nM
- IC50 (human JAK2): 0.7 nM

Structure (SMILES): CS(=O)(=O)c1cccc(-c2cccn3nc(Nc4ccc(OCCN5CCCC5)cc4)nc23)c1 [Example 13, [8-(3-Methanesulfonyl-phenyl)-[1,2,4]triazolo[1,5-a]pyridin-2-yl]-[4-(2-pyrrolidin-1-yl-ethoxy)-phenyl]-amine]
- IC50 (human FAK): 524 nM
- IC50 (human JAK2): 3 nM

Structure (SMILES): CS(=O)(=O)c1ccc(-c2cccn3nc(Nc4ccc(OCCN5CCOCC5)cc4)nc23)cc1 [Example 26, [8-(4-Methanesulfonyl-phenyl)-[1,2,4]triazolo[1,5-a]pyridin-2-yl]-[4-(2-morpholin-4-yl-ethoxy)-phenyl]-amine]
- IC50 (human FAK): 585 nM
- IC50 (human JAK2): 1.3 nM

Structure (SMILES): CS(=O)(=O)c1ccc(-c2cccn3nc(Nc4cccc(N5CCOCC5)c4)nc23)cc1 [Example 27, [8-(4-Methanesulfonyl-phenyl)-[1,2,4]triazolo[1,5-a]pyridin-2-yl]-(3-morpholin-4-yl-phenyl)-amine]
- IC50 (human FAK): 2020 nM
- IC50 (human JAK2): 0.4 nM

Structure (SMILES): CS(=O)(=O)c1cccc(-c2cccn3nc(Nc4cccc(N5CCOCC5)c4)nc23)c1 [Example 29, [8-(3-Methanesulfonyl-phenyl)-[1,2,4]triazolo[1,5-a]pyridin-2-yl]-(3-morpholin-4-yl-phenyl)-amine]
- IC50 (human FAK): 1350 nM
- IC50 (human JAK2): 5.6 nM

Structure (SMILES): CN1CCN(c2ccc(Nc3nc4c(-c5ccc(S(C)(=O)=O)cc5)cccn4n3)cc2)CC1 [Example 32, [8-(4-Methanesulfonyl-phenyl)-[1,2,4]triazolo[1,5-a]pyridin-2-yl]-[4-(4-methyl-piperazin-1-yl)-phenyl]-amine]
- IC50 (human FAK): 410 nM
- IC50 (human JAK2): 2.4 nM

Structure (SMILES): CN1CCN(c2cccc(Nc3nc4c(-c5ccc(S(C)(=O)=O)cc5)cccn4n3)c2)CC1 [Example 35, [8-(4-Methanesulfonyl-phenyl)-[1,2,4]triazolo[1,5-a]pyridin-2-yl]-[3-(4-methyl-piperazin-1-yl)-phenyl]-amine]
- IC50 (human FAK): 1060 nM
- IC50 (human JAK2): 1.3 nM

Structure (SMILES): COc1ccc(Nc2nc3c(Nc4ccc(S(C)(=O)=O)cc4)cccn3n2)cc1 [Example 38, N(8)-(4-Methanesulfonyl-phenyl)-N(2)-(4-methoxy-phenyl)-[1,2,4]triazolo[1,5-a]pyridine-2,8-diamine]
- IC50 (human FAK): 10000 nM
- IC50 (human JAK2): 470 nM

Structure (SMILES): COc1ccc(Nc2nc3c(-c4cn[nH]c4)cccn3n2)cc1 [Example 39, (4-Methoxy-phenyl)-[8-(1H-pyrazol-4-yl)-[1,2,4]triazolo[1,5-a]pyridin-2-yl]-amine]
- IC50 (human FAK): 2360 nM
- IC50 (human JAK2): 32.6 nM

Structure (SMILES): Cc1nn(C)c(C)c1Nc1nc2c(-c3ccc(S(C)(=O)=O)cc3)cccn2n1 [Example 210, [8-(4-Methanesulfonyl-phenyl)-[1,2,4]triazolo[1,5-a]pyridin-2-yl]-(1,3,5-trimethyl-1H-pyrazol-4-yl)-amine]
- IC50 (human JAK2): 3000 nM

Structure (SMILES): CN1CCN(c2cccc(Nc3nc4c(Oc5ccc(S(C)(=O)=O)cc5)cccn4n3)c2)CC1 [Example 214, [8-(4-Methanesulfonyl-phenoxy)-[1,2,4]triazolo[1,5-a]pyridin-2-yl]-[3-(4-methyl-piperazin-1-yl)-phenyl]-amine]
- IC50 (human JAK2): 1650 nM

Structure (SMILES): CC(C)(C)OC(=O)N1CCc2ccc(Nc3nc4c(-c5cccc6c5OC(F)(F)O6)cccn4n3)cc2CC1 [Example 243]
- IC50 (human JAK2): 2110 nM

Structure (SMILES): CN1CCN(c2ccc(Nc3nc4c(O)cccn4n3)cc2)CC1 [Example 264, 2-[4-(4-Methyl-piperazin-1-yl)-phenylamino]-[1,2,4]triazolo[1,5-a]pyridin-8-ol]
- IC50 (human JAK2): 567 nM

Structure (SMILES): Cc1cccn2nc(Nc3ccc(S(C)(=O)=O)cc3)nc12 [Example 265, (4-Methanesulfonyl-phenyl)-(8-methyl-[1,2,4]triazolo[1,5-a]pyridin-2-yl)-amine]
- IC50 (human JAK2): 2620 nM

Structure (SMILES): CC(C)(C)OC(=O)N1CCc2ccc(Nc3nc4c(-c5cc(C(F)(F)F)ccc5F)cccn4n3)cc2CC1 [Example 269, [8-(2-Fluoro-5-trifluoromethyl-phenyl)-[1,2,4]triazolo[1,5-a]pyridin-2-ylamino]-[2,3,4,5-tetrahydro-1H-benzo[d]azopin-7-yl]-3-carboxylic acid tert-butyl ester]
- IC50 (human JAK2): 586 nM

Structure (SMILES): CC(C)(C)OC(=O)N1CCC(c2ccc(Nc3nc4c(-c5cnn(-c6ccc(F)cc6)c5)cccn4n3)cc2)CC1 [Example 280, 4-{4-[8-(1-(4-Fluoro-phenyl)-1H-pyrazol-4-yl)-[1,2,4]triazolo[1,5-a]pyridine-2-ylamino]-phenyl}-piperidine-1-carboxylic acid tert-butyl ester]
- IC50 (human JAK2): 1110 nM

Structure (SMILES): COc1cnc(-c2cccn3nc(Nc4ccc(C5CCN(C(=O)OC(C)(C)C)CC5)cc4)nc23)cn1 [Example 284, 4-{4-[8-(5-Methoxy-pyrazin-2-yl)-[1,2,4]triazolo[1,5-a]pyridine-2-ylamino]-phenyl}-piperidine-1-carboxylic acid tert-butyl ester]
- IC50 (human JAK2): 1490 nM

Structure (SMILES): Cc1ccc(-n2cc(-c3cccn4nc(Nc5ccc(C6CCN(C(=O)OC(C)(C)C)CC6)cc5)nc34)cn2)cc1 [Example 287, 4-{4-[8-(1-p-Tolyl-1H-pyrazol-4-yl)-[1,2,4]triazolo[1,5-a]pyridine-2-ylamino]-phenyl}-piperidine-1-carboxylic acid tert-butyl ester]
- IC50 (human JAK2): 1690 nM

Structure (SMILES): COc1ccc(C(F)(F)F)cc1Nc1cccn2nc(Nc3cccc(N4CCN(C)CC4)c3)nc12 [Example 290, N(8)-(2-Methoxy-5-trifluoromethyl-phenyl)-N(2)-[3-(4-methyl-piperazin-1-yl)-phenyl]-[1,2,4]triazolo[1,5-a]pyridine-2,8-diamine]
- IC50 (human JAK2): 3000 nM
